Several values for one entry are separate records, joined by “and”; a condition that tells them apart may be missing. Identical values can stand only once.
How the values were obtained:
[1] = tested on: IL-1β-induced production of the cytokine IL-6; experiment: IL-1β-induced IL-6 in primary human endothelial cells; assay type: cell-based; conditions: result in words
[2] = tested on: TLR4-induced IL-23 and TNF-α; experiment: TLR4 induced TNF-α in THP-1 cells; assay type: cell-based; conditions: human THP-1 cells; result in words
Description: Assay Protocol: TLR4 and TLR2 induced cytokines in THP-1 cells. […]
THP-1 cells (100K in 100 µL/well) were primed with 25 ng/mL IFN-γ for 18 hours at 37°C, 5% CO2. […] IL-23p 19 or TNF-α protein in the supernatant were measured by sandwich ELISA. […] The plates were read with a luminometer, and the chemiluminescence values were entered into Athena (Rigel) for curve fitting, EC50 calculation, and database storage.

TLR4-dependent = TLR4-dependent cytokine production in mouse macrophages; assay type: cell-based; conditions: result in words
[3] = Rat brain homogenate binding, equilibrium dialysis (RED); assay type: in vitro ADME
Description: (§1) Brain and plasma drug binding were performed by equilibrium dialysis using the Rapid Equilibrium Dialysis (RED) device. Briefly, 300 µL of plasma or brain homogenate (1 brain /3 buffer) containing drug (5 µM) was equilibrated (4-18 h) against 500 µL of buffered saline. After incubation, the concentration of drug in plasma/brain homogenate and buffer was determined by LC-MS/MS.
Two runs of rat brain homogenate binding with I-1 compared to Comparison-1. I-1 is approximately 10-fold more free in rat brain than Comparison-1.

[4] = Plasma protein binding, free drug comparison across species; assay type: in vitro ADME; conditions: free drug in rat, dog, monkey and human proteins
Description: as §1
Higher free drug in plasma and brain allow for more drug to interact with the target. [drawing 34]
From a free drug perspective compound I-1 was approximately 6-times more free than Comparision-1 in rat, dog, monkey and human proteins.

TLR7-induced TNF-α = TLR7-induced TNF-α in human PBMC (resiquimod); assay type: cell-based; conditions: human PBMCs; result in words
Description: Assay Protocol: TLR7-induced TNF-α in human Peripheral Blood Mononuclear Cells (PBMC).
• Corning™ Costar™ 96-Well, Cell Culture-Treated, U-Shaped-Bottom Microplate (Fisher, Cat# 07-200-95) • Human PBMC (ALL Cells, Cat# PB002) • Resiquimod (InvivoGen, Cat No. tlrl-r848) • Human TNF-α DuoSet ELISA Kit (R&D Systems, Cat# DY210) • Recombinant Human IFN-β (Peprotech, Cat# 300-02BC) • RPMI with 10% FBS • Axygen 96well, 1.1 mL, sterile (VWR International, Cat# 47734-788)
Human peripheral blood mononuclear cells (PBMC) were seeded at 100,000 cells per well in 100 µL of RPMI with 10% FCS and primed overnight with 8 ng/ml of IFN-β at 37 °C, 5% CO2. Compound was serially diluted in DMSO from 2 mM in 3-fold dilutions, and then diluted 1:100 in RPMI 1640 complete media with 10% FBS (2 x stock). The PBMCs were pre-incubated with test compound for 1 hour at 37 °C, 5% CO2 by adding 100 µL of RPMI media containing 2x concentrated test compound per well (0.5% final DMSO concentration).
The PBMCs were stimulated with resiquimod (10 µL per well of 21x concentrated resiquimod solution in RPMI media to give a final concentration of 0.1 µg/ml) at 37 °C, 5% CO2 for an additional 18 hours. 100 µL of supernatant per well was harvested to measure TNF-α. TNF-α was quantitated using DuoSet ELISA Kit per manufacturer's protocol.

more free in rat brain than Comparison-1 ([3]; rat brain homogenate): approximately 10 fold
rat brain homogenate binding (free drug) ([3]; two runs, brain homogenate 1 brain /3 buffer, drug 5 µM, 5 µM): 1.06% and 1.43%
more free than Comparision-1 [4]: approximately 6 times
SMILES: CCO[C@H]1CC[C@H](n2cc(NC(=O)c3csc(-c4cn[nH]c4)n3)c(-c3ncccn3)n2)CC1 [Compound I-1, N-(1-((1r,4r)-4-ethoxycyclohexyl)-3-(pyrimidin-2-yl)-1H-pyrazol-4-yl)-2-(1H-pyrazol-4-yl)thiazole-4-carboxamide]
IL-1β-induced production of the cytokine IL-6 [1]: potently inhibits
TLR4-induced TNF-α production [2]: inhibits
TLR4-dependent cytokine production (TLR4-dependent): potent inhibitor
TLR7-dependent cytokine production (TLR7-induced TNF-α): potent inhibitor

Reference: patent EP4799701A2, “PYRIMID-2-YL-PYRAZOLE COMPOUNDS AS IRAK INHIBITORS” (Rigel Pharmaceuticals, Inc., priority 2022, dated 2023)
